Test system: patients suffering from Generalized Anxiety Disorder
Assay: Clinical study versus placebo in Generalized Anxiety Disorder
Format: in vivo
Procedure: A clinical study versus placebo has been carried out in 121 patients. Those 121 patients have been randomised in two parallel groups and received either agomelatine at 25 mg per day or placebo.
After treatment for two weeks, and in case of low response, doses have been increased to 50 mg per day in double blind study for patients receiving agomelatine with a IVRS system (Interactive Voice Response System). Treatment for 12 weeks was carried out.
The efficacy has been appreciated with evaluation tools recommended by the health authorities, such as the Hamilton Anxiety Scale (Hamilton M., J. Neurol. Neurosurg. Psychiat., 1959, 23, 56-62), or the Sheehan Disability Scale (International Clinical Psychopharmacology, 1996, 11, 89-95). The acceptability profile has also been evaluated.

acceptability profile for the patients (25 mg per day (up to 50 mg per day), 12 weeks): good acceptability profile
discontinuation syndrome when the treatment was stopped (after stopping 12 weeks treatment): absence of the discontinuation syndrome
Structure (SMILES): COc1ccc2cccc(CCNC(C)=O)c2c1 [agomelatine, N-[2-(7-methoxy-1-naphthyl)ethyl]acetamide]
difference between agomelatine group and placebo group on the total score of the Hamilton Anxiety Scale (121 patients, 25 mg per day (increased to 50 mg per day in case of low response after two weeks), 12 weeks, p=0.040): −3.28
